Each compound was assayed against T1, full-length human Mineralocorticoid Receptor (MR) (Homo sapiens, UniProt P08235) (assay: human MR NH Pro assay (PathHunter Protein:Protein interaction assay), MR antagonist activity). Details: PathHunter CHO-K1 cells overexpressing human MR; aldosterone about 0.3 nM; 6 hours at 37° C.; luminescence; read-out: Primary Assay IP rating (IP = inflection point for a given dose-response titration curve).
T1 construct: host or cells: PathHunter CHO-K1 cells
T1 sequence (P08235 1-984): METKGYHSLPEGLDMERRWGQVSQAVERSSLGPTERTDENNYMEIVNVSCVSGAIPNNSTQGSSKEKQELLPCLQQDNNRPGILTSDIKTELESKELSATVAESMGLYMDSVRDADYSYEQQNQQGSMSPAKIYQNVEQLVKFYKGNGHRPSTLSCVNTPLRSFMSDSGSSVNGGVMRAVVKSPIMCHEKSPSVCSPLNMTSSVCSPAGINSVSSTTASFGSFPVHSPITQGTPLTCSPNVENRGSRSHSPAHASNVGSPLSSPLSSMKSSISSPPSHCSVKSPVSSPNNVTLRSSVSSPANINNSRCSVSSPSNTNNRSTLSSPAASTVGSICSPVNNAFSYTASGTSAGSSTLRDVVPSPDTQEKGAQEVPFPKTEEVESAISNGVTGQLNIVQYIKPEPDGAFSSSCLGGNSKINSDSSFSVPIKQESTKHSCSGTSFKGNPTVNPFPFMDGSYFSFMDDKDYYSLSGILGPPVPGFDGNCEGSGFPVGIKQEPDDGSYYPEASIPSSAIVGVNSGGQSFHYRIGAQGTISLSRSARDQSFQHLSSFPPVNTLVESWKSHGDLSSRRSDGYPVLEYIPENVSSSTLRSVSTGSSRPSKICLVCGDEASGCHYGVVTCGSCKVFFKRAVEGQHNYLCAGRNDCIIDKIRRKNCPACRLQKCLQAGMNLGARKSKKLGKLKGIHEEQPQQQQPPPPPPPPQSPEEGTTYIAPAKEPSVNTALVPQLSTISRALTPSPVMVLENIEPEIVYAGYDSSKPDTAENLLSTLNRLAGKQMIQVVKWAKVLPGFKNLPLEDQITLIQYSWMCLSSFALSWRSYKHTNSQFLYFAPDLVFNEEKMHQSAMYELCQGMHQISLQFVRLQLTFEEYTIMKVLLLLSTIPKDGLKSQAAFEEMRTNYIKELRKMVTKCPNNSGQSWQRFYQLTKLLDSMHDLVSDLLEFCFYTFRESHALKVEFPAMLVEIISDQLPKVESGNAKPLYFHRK
Format: cell-based
Outline: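 PathHunter enzyme-complementation assay in cells of full-length human MR recruitment of a coactivator peptide, run in antagonist mode against aldosterone at about 0.3 to 1.0 nM final. Compounds are in a 10-point, 1:3 series from a 4.4 mM top. Incubation is 6 h at 37° C, then detection reagent for 1 h at RT, with a luminescence read-out.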

SMILES	IC50
CCC(c1ccc(Cl)cc1)(c1nc(C#N)no1)n1ncc2c(NS(C)(=O)=O)cccc21 (stereo not shown) [Compound 158, N-(1-(1-(4-chlorophenyl)-1-(3-cyano-1,2,4-oxadiazol-5-yl)propyl)-1H-indazol-4-yl)methane sulfonamide]	< 100 nM
CCC(CC#N)(c1ccc(Cl)cc1)n1ccc2c(NS(C)(=O)=O)cc(F)cc21 (single isomer, unassigned) [Compound 124, N-(1-(2-(4-chlorophenyl)-1-cyanobutan-2-yl)-6-fluoro-1H-indol-4-yl)methanesulfonamide]	100 to 500 nM
CCC(c1ccc(Cl)cc1)(c1nnc(-c2ccc(Cl)cc2)o1)n1ccc2c(NS(C)(=O)=O)cccc21 (stereo not shown) [Compound 71, N-(1-{1-(4-chlorophenyl)-1-[5-(4-chlorophenyl)-1,3,4-oxadiazol-2-yl]propyl}-1H-indol-4-yl)methanesulfonamide]	< 100 nM
CCC(c1ccc(Cl)cc1)(C(C)O)n1ccc2c(NS(C)(=O)=O)cccc21 (single isomer, unassigned) [Compound 108, N-(1-(3-(4-chlorophenyl)-2-hydroxypentan-3-yl)-1H-indol-4-yl)methanesulfonamide]	< 100 nM
CS(=O)(=O)Nc1cccc2c1ccn2C(CC#N)(c1ccc(Cl)cc1)c1nnc(-c2ccccc2)o1 (stereo not shown) [Compound 76, N-{1-[1-(4-chlorophenyl)-2-cyano-1-(5-phenyl-1,3,4-oxadiazol-2-yl)ethyl]-1H-indol-4-yl}methanesulfonamide]	100 to 500 nM
CCC(C#CC#N)(c1ccc(Cl)cc1)n1ccc2c(NS(C)(=O)=O)cccc21 (single isomer, unassigned) [Compound 155, N-(1-(3-(4-chlorophenyl)-1-cyanopent-1-yn-3-yl)-1H-indol-4-yl)methanesulfonamide]	< 100 nM
CCC(c1ccc(C(F)(F)F)cc1)(C(C)O)n1ncc2c(NS(C)(=O)=O)cccc21 (single isomer, unassigned) [Compound 117, N-(1-(2-hydroxy-3-(4-(trifluoromethyl)phenyl)pentan-3-yl)-1H-indazol-4-yl)methanesulfonamide]	< 100 nM
CCC(CC)(c1ccc(Cl)cc1)n1ccc2c(NS(C)(=O)=O)cccc21 [Compound 174, N-(1-(3-(4-chlorophenyl)pentan-3-yl)-1H-indol-4-yl)methanesulfonamide]	100 to 500 nM
CCC(CC#N)(c1ccc(Cl)cc1)n1ccc2c(NS(C)(=O)=O)cccc21 (single isomer, unassigned) [Compound 122, N-(1-(2-(4-chlorophenyl)-1-cyanobutan-2-yl)-1H-indol-4-yl)methanesulfonamide]	< 100 nM
CCC(c1ccc(C(F)(F)F)cc1)(n1ncc2c(NS(C)(=O)=O)cccc21)C(C)(C)O (single isomer, unassigned) [Compound 93, N-(1-(2-hydroxy-2-methyl-3-(4-(trifluoromethyl)phenyl)pentan-3-yl)-1H-indazol-4-yl)methane sulfonamide]	< 100 nM
CCC(C#N)(c1ccc(Cl)cc1)n1ccc2c(NS(=O)(=O)CC)cccc21 (stereo not shown) [Compound 178, N-(1-(1-(4-chlorophenyl)-1-cyanopropyl)-1H-indol-4-yl)ethanesulfonamide]	100 to 500 nM
CCC(c1ccc(Cl)cc1)(c1noc(-c2ccc(Cl)cc2)n1)n1ccc2c(NS(C)(=O)=O)cccc21 (stereo not shown) [Compound 60, N-(1-{1-(4-chlorophenyl)-1-[5-(4-chlorophenyl)-1,2,4-oxadiazol-3-yl]propyl}-1H-indol-4-yl)methanesulfonamide]	< 100 nM
CCC(CC#N)(c1ccc(Cl)cc1)n1ccc2c(NS(C)(=O)=O)cc(F)cc21 (single isomer, unassigned) [Compound 125, N-(1-(2-(4-chlorophenyl)-1-cyanobutan-2-yl)-6-fluoro-1H-indol-4-yl)methanesulfonamide]	< 100 nM
CCC(CCCO)(c1ccc(Cl)cc1)n1ccc2c(NS(C)(=O)=O)cccc21 (stereo not shown) [Compound 169, N-(1-(3-(4-chlorophenyl)-6-hydroxyhexan-3-yl)-1H-indol-4-yl)methanesulfonamide]	< 100 nM
CCC(/C=C/C(=O)OC)(c1ccc(Cl)cc1)n1ncc2c(NS(C)(=O)=O)cccc21 (stereo not shown) [Compound 171, (E)-methyl 4-(4-chlorophenyl)-4-(4-(methylsulfonamido)-1H-indazol-1-yl)hex-2-enoate]	100 to 500 nM
CCC(c1ccc(Cl)cc1)(C(C)N)n1ccc2c(NS(C)(=O)=O)cccc21 (single isomer, unassigned) [Compound 176, N-(1-(2-amino-3-(4-chlorophenyl)pentan-3-yl)-1H-indol-4-yl)methanesulfonamide]	< 100 nM

SMILES	IC50
CCC(c1ccc(C(F)(F)F)cc1)(C(C)O)n1ccc2c(NS(C)(=O)=O)cccc21 (single isomer, unassigned) [Compound 113, N-(1-(2-hydroxy-3-(4-(trifluoromethyl)phenyl)pentan-3-yl)-1H-indol-4-yl)methanesulfonamide]	< 100 nM
CCC(C(=O)NCC(=O)OC)(c1ccc(Cl)cc1)n1ccc2c(NS(C)(=O)=O)cccc21 (stereo not shown) [Compound 52, methyl N-[2-(4-chlorophenyl)-2-{4-[(methylsulfonyl)amino]-1H-indol-1-yl}butanoyl]glycinate]	100 to 500 nM
CCC(CCCF)(c1ccc(Cl)cc1)n1ccc2c(NS(C)(=O)=O)cccc21 (stereo not shown) [Compound 170, N-(1-(3-(4-chlorophenyl)-6-fluorohexan-3-yl)-1H-indol-4-yl)methanesulfonamide]	< 100 nM
CCC(c1ccc(Cl)cc1)(C(C)O)n1ncc2c(NS(=O)(=O)NC)cccc21 (stereo not shown) [Compound 118]	< 100 nM
CCC(C(C)=O)(c1ccc(C(F)(F)F)cc1)n1ncc2c(NS(C)(=O)=O)cccc21 (single isomer, unassigned) [Compound 104, N-(1-(2-oxo-3-(4-(trifluoromethyl)phenyl)pentan-3-yl)-1H-indazol-4-yl)methanesulfonamide]	100 to 500 nM
COC(=O)C(CCF)(c1ccc(Cl)cc1)n1ccc2c(NS(C)(=O)=O)cccc21 (stereo not shown) [Compound 156, methyl 2-(4-chlorophenyl)-4-fluoro-2-(4-(methylsulfonamido)-1H-indol-1-yl)butanoate]	< 100 nM
CCC(c1ccc(Cl)cc1)(n1ncc2c(NS(C)(=O)=O)cccc21)C(C)(C)O (single isomer, unassigned) [Compound 92, N-(1-(3-(4-chlorophenyl)-2-hydroxy-2-methylpentan-3-yl)-1H-indazol-4-yl)methane sulfonamide]	< 100 nM
CCC(C(=O)OC(C)(C)C)(c1ccc(Cl)cc1)n1ccc2c(NS(C)(=O)=O)cccc21 (stereo not shown) [Compound 26, tert-Butyl 2-(4-chlorophenyl)-2-{4-[(methylsulfonyl)amino]-1H-indol-1-yl}butanoate]	100 to 500 nM
CNC(=O)C(CC1CC1)(c1ccc(Cl)cc1)n1ccc2c(NS(C)(=O)=O)cccc21 (stereo not shown) [Compound 56, 2-(4-chlorophenyl)-3-cyclopropyl-N-methyl-2-{4-[(methylsulfonyl)amino]-1H-indol-1-yl}propanamide]	100 to 500 nM
CCC(c1ccc(Cl)cc1)(n1ncc2c(NS(=O)(=O)NC)cccc21)C(C)(C)O (stereo not shown) [Compound 94]	< 100 nM
CCC(CCC#N)(c1ccc(OC)cc1)n1ccc2c(NS(C)(=O)=O)cccc21 (stereo not shown) [Compound 139, N-(1-(1-cyano-3-(4-methoxyphenyl)pentan-3-yl)-1H-indol-4-yl)methanesulfonamide]	< 100 nM
COC(=O)C(c1cccc(-c2cccc(OC)c2)c1)n1ccc2c(NS(C)(=O)=O)cccc21 (stereo not shown) [Compound 78]	500 to 5000 nM
CCC(/C(C)=C/C#N)(c1ccc(Cl)cc1)n1ccc2c(NS(C)(=O)=O)cccc21 (stereo not shown) [Compound 132, N-(1-(3-(4-Chlorophenyl)-1-cyano-2-methylpent-1-en-3-yl)-1H-indol-4-yl)methanesulfonamide]	< 100 nM
CC[C@@](c1ccc(Cl)cc1)(c1nc(-c2ccccc2)n[nH]1)n1ccc2c(NS(C)(=O)=O)cccc21 [Compound 64, (R)—N-{1-[1-(4-chlorophenyl)-1-(3-phenyl-1H-1,2,4-triazol-5-yl)propyl]-1H-indol-4-yl}methanesulfonamide]	500 to 5000 nM
CCC(c1ccc(Cl)cc1)(c1nnc(C)o1)n1ccc2c(NS(C)(=O)=O)cccc21 (stereo not shown) [Compound 68, N-{1-[1-(4-chlorophenyl)-1-(5-methyl-1,3,4-oxadiazol-2-yl)propyl]-1H-indol-4-yl}methanesulfonamide]	100 to 500 nM

Source: patent US8933113B2 (Merck Sharp & Dohme Corp., priority 2011, dated 2015)
